# Reference: patent EP1379283B1, “IDENTIFICATION OF TARGET-SPECIFIC FOLDING SITES IN PEPTIDES AND PROTEINS” (Palatin Technologies, Inc., priority 2000, dated 2002)
# Square brackets hold non-standard residues; d marks the D form. Ends that are not written are not given here. Nle = CCCC[C@H](N)C(=O)O; Sar = CNCC(=O)O
# Columns and labels:
# MC1-R = biological target: T1, MC1-R (Mus musculus, UniProt Q01727); assay: competitive inhibition binding assay with 125I-NDP-alpha-MSH, B-16 mouse melanoma cell membranes; details: for % Inhibition at 1 µM MC-1: 0.4 nM 125I-NDP-alpha-MSH, B-16 mouse melanoma cell membranes, mean of triplicate; for receptor specificity MCR-1 versus MCR-4: conclusion from Table 2
# T1 construct: B-16 mouse melanoma cells (containing MC1-R); endogenous in cells; host or cells: B-16 mouse melanoma cells (membranes)
# Experimental: (§1) Ac-Nle-Ala-His-D-Phe-Arg-Trp-NH2 is a known receptor-binding sequence for melanotropin receptors. The K, values for binding to MCR-1 and -4 were measured to be 0.1 µM and 2 µM respectively. A series of metallopeptides based on this sequence were synthesized by inserting a Cys residue after the 2 position and through the n+1 position and complexing the resulting Cys-containing peptide with an Re-oxo metal ion core as described Example 1. The resulting metallopeptides were screened for inhibiting the binding of 125-I-NDP-alpha-MSH radioligand using B-16 mouse melanoma cells for MCR-1 and cloned human MCR-[…] and -4 receptor transfected 293 cells.
# (§2) The competitive inhibition binding assay was conducted using membranes prepared from hMC3-R, hMC4-R, hMC5-R, and B-16 mouse melanoma cells (containing MC1-R) using 0.4 nM ^125I-NDP-alpha-MSH (New England Nuclear, Boston, MA, USA) in 50 mM HEPES buffer containing 1 mM MgCl2, 2 mM CaCl2, and 5 mM KCI, at pH 7.2. The assay tube also contained a chosen concentration of the test peptide of this invention, complexed to a rhenium metal ion as indicated, for determining its efficacy in inhibiting the binding of ^125I-NDP-alpha-MSH to its receptor. Non-specific binding was measured by complete inhibition of binding of ^125I-NDP-alpha-MSH in the assay with the presence of 1 µM alpha-MSH. Incubation was for 90 minutes at room temperature, after which the assay mixture was filtered and the membranes washed three times with ice cold buffer. The filter was dried and counted in a gamma counter for remaining radioactivity bound to the membranes. 100% specific binding was defined as the difference in radioactivity (cpm) bound to cell membranes in the absence and presence of 1 µM alpha-MSH. The cpm obtained in presence of test compounds were normalized with respect to 100% specific binding to determine the percent inhibition of ^125I-NDP-alpha MSH binding. Each assay was conducted in triplicate and the actual mean valves are described in Table 2.
# hMC3-R = biological target: T2, hMC3-R (Homo sapiens, UniProt P41968); assay: competitive inhibition binding assay with 125I-NDP-alpha-MSH, hMC3-R membranes; details: 0.4 nM 125I-NDP-alpha-MSH, mean of triplicate
# T2 construct: expressed in transfected cells; host or cells: 293 cells
# Experimental: as §1, §2
# hMC4-R = biological target: T3, hMC4-R (Homo sapiens, UniProt P32245); assay: competitive inhibition binding assay with 125I-NDP-alpha-MSH, hMC4-R membranes; details: 0.4 nM 125I-NDP-alpha-MSH, mean of triplicate
# T3 construct: expressed in transfected cells; host or cells: 293 cells
# Experimental: as §1, §2
# hMC5-R = biological target: T4, hMC5-R (Homo sapiens, UniProt P33032); assay: competitive inhibition binding assay with 125I-NDP-alpha-MSH, hMC5-R membranes; details: 0.4 nM 125I-NDP-alpha-MSH, mean of triplicate
# T4 construct: expressed in transfected cells; host or cells: 293 cells are named only for 'MCR-2, -3 and -4'; for MC5-R the host is inferred
# Experimental: as §2
# angiotensin-II receptor = biological target: T5, angiotensin-II receptor (Homo sapiens, UniProt P30556); assay: angiotensin-II receptor binding, radioiodinated angiotensin II ligand, membranes of human neuroblastoma cells (KAN-TS); details: 1 µM; KAN-TS cell membranes; 125I-Tyr4, Sar1, Ile8-Angiotensin II
# T5 construct: cell membranes obtained from human neuroblastoma cells (KAN-TS); endogenous in cells; host or cells: KAN-TS human neuroblastoma cells (membranes)
# T5 sequence (P30556 1-359): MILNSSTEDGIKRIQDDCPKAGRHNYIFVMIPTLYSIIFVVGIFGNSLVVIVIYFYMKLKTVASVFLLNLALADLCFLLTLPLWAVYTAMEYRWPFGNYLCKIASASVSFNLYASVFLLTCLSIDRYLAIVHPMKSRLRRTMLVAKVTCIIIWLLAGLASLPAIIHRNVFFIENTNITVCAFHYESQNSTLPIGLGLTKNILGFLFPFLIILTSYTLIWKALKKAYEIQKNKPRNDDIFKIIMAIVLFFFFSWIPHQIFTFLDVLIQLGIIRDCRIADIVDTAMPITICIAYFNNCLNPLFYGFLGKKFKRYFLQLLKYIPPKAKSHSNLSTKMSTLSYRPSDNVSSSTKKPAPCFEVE
# Experimental: The screening of compounds for binding to the angiotensin-II receptor was performed using cell membranes obtained from human neuroblastoma cells (KAN-TS). The assay was performed in triplicates, generally as described in Example 4 for oxytocin, except for measurement of receptor bound radioactivity. For angiotensin, a radioiodinated tracer ligand was used (instead of a tritiated ligand), which radioiodinated tracer facilitated direct measurement of bound radioactivity using a gamma counter. A final 1-3 nM concentration of ^125I-Tyr^4, Sar^1, Ile^8-Angiotensin II ligand (obtained from Perkin Elemer - NEN Life Sciences) was used as radiotracer and angiotensin-II (1 µM final assay concentration) was used to measure non-specific binding. After filtration of the incubation medium, followed by washings, drying the filters and punching the filters into test tubes, the filters were counted for radioactivity in a gamma counter. An activity profile for the test compounds was generated by ability to inhibit specific binding of the radiotracer to its receptor.
# T4 sequence (P33032 whole entry): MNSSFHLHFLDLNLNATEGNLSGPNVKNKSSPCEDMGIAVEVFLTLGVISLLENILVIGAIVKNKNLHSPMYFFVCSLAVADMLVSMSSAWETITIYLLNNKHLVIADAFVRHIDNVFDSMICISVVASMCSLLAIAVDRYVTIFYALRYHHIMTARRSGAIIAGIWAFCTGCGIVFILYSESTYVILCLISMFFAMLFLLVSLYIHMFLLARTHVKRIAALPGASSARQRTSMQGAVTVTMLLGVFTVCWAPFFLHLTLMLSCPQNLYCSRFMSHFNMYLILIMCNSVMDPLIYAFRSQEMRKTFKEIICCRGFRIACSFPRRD
# T3 sequence (P32245 whole entry): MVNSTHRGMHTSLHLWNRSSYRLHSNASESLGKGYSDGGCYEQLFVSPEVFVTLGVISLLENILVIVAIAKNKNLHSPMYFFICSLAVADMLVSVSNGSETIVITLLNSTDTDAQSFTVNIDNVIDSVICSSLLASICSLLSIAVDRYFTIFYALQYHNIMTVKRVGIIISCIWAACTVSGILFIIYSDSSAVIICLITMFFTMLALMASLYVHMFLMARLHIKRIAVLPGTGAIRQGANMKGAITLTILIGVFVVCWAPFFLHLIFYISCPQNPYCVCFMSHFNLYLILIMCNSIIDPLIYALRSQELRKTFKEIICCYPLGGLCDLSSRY
# T1 sequence (Q01727 whole entry): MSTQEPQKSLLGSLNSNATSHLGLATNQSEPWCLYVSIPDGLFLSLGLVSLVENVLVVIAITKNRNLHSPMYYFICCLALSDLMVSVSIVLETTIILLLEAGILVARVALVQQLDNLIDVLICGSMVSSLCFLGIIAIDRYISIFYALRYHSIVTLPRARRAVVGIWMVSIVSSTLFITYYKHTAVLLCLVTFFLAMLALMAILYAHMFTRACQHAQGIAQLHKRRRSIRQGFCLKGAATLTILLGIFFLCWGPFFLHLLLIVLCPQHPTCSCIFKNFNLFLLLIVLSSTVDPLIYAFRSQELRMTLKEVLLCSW
# T2 sequence (P41968 whole entry): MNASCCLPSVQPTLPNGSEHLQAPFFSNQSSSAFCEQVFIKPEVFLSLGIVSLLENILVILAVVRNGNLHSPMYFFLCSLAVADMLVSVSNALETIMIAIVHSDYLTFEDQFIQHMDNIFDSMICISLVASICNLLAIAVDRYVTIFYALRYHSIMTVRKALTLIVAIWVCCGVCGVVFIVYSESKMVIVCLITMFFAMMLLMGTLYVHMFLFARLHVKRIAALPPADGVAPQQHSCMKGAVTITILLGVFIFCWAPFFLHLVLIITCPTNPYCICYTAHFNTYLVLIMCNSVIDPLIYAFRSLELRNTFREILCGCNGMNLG
Substance,% Inhibition at 1 µM MC-1 (MC1-R),% Inhibition at 1 µM MC-3 (hMC3-R),% Inhibition at 1 µM MC-4 (hMC4-R),% Inhibition at 1 µM MC-5 (hMC5-R),receptor specificity MCR-1 versus MCR-4 (MC1-R),% Inhibition at 1 µM (angiotensin-II receptor)
Ac-[Nle]ACH[dF]RW-NH2,96%,47%,71%,64%,,
Ac-[Nle]AHC[dF]RW-NH2,84%,9%,75%,58%,,
Ac-[Nle]AH[dF]CRW-NH2,93%,15%,66%,57%,,
Ac-[Nle]AH[dF]RCW-NH2,96%,0%,17%,0%,specific for the MCR-1 receptor but not the MCR-4 receptor,
Ac-[Nle]AH[dF]RWC-NH2,91%,70%,98%,93%,binding both the MCR-1 and MCR-4 receptors,
Sar-Arg-Val-Tyr-Ile-His-Cys-Pro-Thr ([Sar]RVYIHCPT; not fully specified (bridges); printed as Sar-Arg-Val-Tyr-Ile-His-Cys-Pro-Thr; also: oxorhenium(V) metal complex) [SEQ ID NO:161],,,,,,60%
Sar-Arg-Val-Tyr-Ile-His-Gly-Cys-Thr ([Sar]RVYIHGCT; not fully specified (bridges); printed as Sar-Arg-Val-Tyr-Ile-His-Gly-Cys-Thr; also: oxorhenium(V) metal complex) [SEQ ID NO:160],,,,,,5%
